These results are taken from US11834451B2 (priority 2021, dated 2023).

Where two headings read alike, the source gives them in different places.

For one data set, the system named is CVB3 Nancy virus. Nature of the data set: microbe, parasite or virus in culture. It is filed as cell-based, coxsackievirus B3 (CVB3). The conditions noted are these: Enterovirus B, CVB3, Vero, read-out: EC50, Anti-CVB3 in Vero cells.
The subject of a further data set is EV-D68. Nature of the data set: microbe, parasite or virus in culture. It is filed as cell-based, enterovirus D68 (EV-D68). The conditions noted are these: Enterovirus D, EVD68, RD.
A short description of a further data set: in vitro. Particulars: human.
The next data set relates to EV-A71. Nature of the data set: microbe, parasite or virus in culture. It counts as cell-based, enterovirus A71 (EV-A71). The conditions noted are these: Enterovirus A, EVA71, RD.
The subject of a further data set is Vero cells. Particulars: African green monkey.
The test system of a further data set is EV-D68, EV-A71, and CVB3. Nature of the data set: organism not typed. It is filed as cell-based.
Setting [1] is: read-out: EC50, Anti-EV-D68 US/KY/14-18953 in RD cells.
Where [2] appears, read: CC50, in RD cells (Anti-EV-A71).
[3] abbreviates: read-out: EC50, Anti-EV-A71 Tainan/4643/1998 in RD cells.

On to `Cc1nn(C(C)(C)C)c2nc(C3CC3)cc(C(=O)NCCN(C)C)c12` [Compound 18a, 1-tert-butyl-6-cyclopropyl-N-[2-(dimethylamino)ethyl]-3-methyl-1H-pyrazolo[3,4-b]pyridine-4-carboxamide], for which the EC50 turned out to be 1800 nM in the data set with CVB3 Nancy virus, 800 nM in the data set with EV-D68 (setting [1]) and 3500 nM with EV-A71 (setting [3]). Besides, the CC50 in “in vitro” (setting [2]) was found to be 45200 nM.

Take `CCCn1ncc2c(C(=O)NCCN(C)C)cc(C)nc21` [Compound 14, N-[2-(dimethylamino)ethyl]-6-methyl-1-propyl-1H-pyrazolo[3,4-b]pyridine-4-carboxamide]: in the data set on EV-D68 (setting [1]), the EC50 was 48400 nM.

Consider `CC(C)n1ncc2c(C(=O)NCCCN(C)C)cc(C3CC3)nc21` [Compound 7l, 6-cyclopropyl-N-[3-(dimethylamino)propyl]-1-(propan-2-yl)-1H-pyrazolo[3,4-b]pyridine-4-carboxamide], for which the values for the EC50 in the data set with CVB3 Nancy virus, in the data set with EV-D68 (setting [1]) and in the data set with EV-A71 (setting [3]) were 400 nM, 1200 nM and 1800 nM, respectively. Moreover, the CC50 in the data set on Vero cells is above 200000 nM.

Turning to `CCC(C)n1ncc2c(C(=O)NCCN(C)C)cc(C3CC3)nc21` (stereo not drawn) [Compound 21, 1-(butan-2-yl)-6-cyclopropyl-N-[2-(dimethylamino)ethyl]-1H-pyrazolo[3,4-b]pyridine-4-carboxamide], the values for the EC50 in the data set on CVB3 Nancy virus, in the data set with EV-D68 (setting [1]) and in the data set with EV-A71 (setting [3]) were 100 nM, 200 nM and 100 nM, respectively. Moreover, the “EC50 values in words (summary across viruses)” value (shortened to “EC50 values in words”) with EV-D68, EV-A71, and CVB3 is on record as “low single-digit or submicromolar”.

In the case of `CC(CN)NC(=O)c1cc(C2CC2)nc2c1cnn2C(C)C` (stereo not drawn) [Compound 7j, N-(1-aminopropan-2-yl)-6-cyclopropyl-1-(propan-2-yl)-1H-pyrazolo[3,4-b]pyridine-4-carboxamide], the EC50 with CVB3 Nancy virus is 300 nM; in the data set with EV-D68 (setting [1]), 300 nM; in the data set on EV-A71 (setting [3]), 600 nM.

On to `CCN(CC)CCNC(=O)c1cc(C2CC2)nc2c1cnn2C(C)C` [Compound 7c, 6-cyclopropyl-N-[2-(diethylamino)ethyl]-1-(propan-2-yl)-1H-pyrazolo[3,4-b]pyridine-4-carboxamide], for which the EC50 was determined as 500 nM with CVB3 Nancy virus, 400 nM with EV-D68 (setting [1]) and 300 nM in the data set with EV-A71 (setting [3]). In addition, the “EC50 values in words” value in the data set with EV-D68, EV-A71, and CVB3 is reported as “submicromolar”.

For the compound `CC(C)n1ncc2c(C(=O)NCCN(C)C)cc(C(C)(C)C)nc21` [Compound 11a, 6-tert-butyl-N-[2-(dimethylamino)ethyl]-1-(propan-2-yl)-1H-pyrazolo[3,4-b]pyridine-4-carboxamide], the EC50 in the data set with CVB3 Nancy virus came out at 100 nM; in the data set with EV-D68 (setting [1]) it was 100 nM; in the data set on EV-A71 (setting [3]), 40 nM. The compound also registered a CC50 in “in vitro” (setting [2]) of 31400 nM.

In the case of `CNCCCNC(=O)c1cc(C2CC2)nc2c1cnn2C(C)C` [Compound 7m, 6-cyclopropyl-N-[3-(methylamino)propyl]-1-(propan-2-yl)-1H-pyrazolo[3,4-b]pyridine-4-carboxamide], the EC50 turned out to be 1600 nM with CVB3 Nancy virus, 1700 nM in the data set on EV-D68 (setting [1]) and 5300 nM with EV-A71 (setting [3]). The compound also displayed a CC50 in “in vitro” (setting [2]) of 183000 nM.

Turning to `Cc1cc(C(=O)NCCN(C)C)c2cnn(C3CCCC3)c2n1` [Compound 13, 1-cyclopentyl-N-[2-(dimethylamino)ethyl]-6-methyl-1H-pyrazolo[3,4-b]pyridine-4-carboxamide], in the data set on EV-D68 (setting [1]), the EC50 is 11100 nM.

As to `CC(C1CC1)n1ncc2c(C(=O)NCCN(C)C)cc(C3CC3)nc21` (stereo not drawn) [Compound 22, 6-cyclopropyl-1-(1-cyclopropylethyl)-N-[2-(dimethylamino)ethyl]-1H-pyrazolo[3,4-b]pyridine-4-carboxamide], the results for the EC50 in the data set on CVB3 Nancy virus, with EV-D68 (setting [1]) and in the data set with EV-A71 (setting [3]) were 1900 nM, 700 nM and 200 nM, respectively. The “EC50 values in words” value in the data set on EV-D68, EV-A71, and CVB3 was “low single-digit or submicromolar”.

Consider `CC(C)n1ncc2c(C(=O)NC3CCN(C)C3)cc(C3CC3)nc21` (stereo not drawn) [Compound 7g, 6-cyclopropyl-N-(1-methylpyrrolidin-3-yl)-1-(propan-2-yl)-1H-pyrazolo[3,4-b]pyridine-4-carboxamide], for which the EC50 in the data set on CVB3 Nancy virus is 100 nM; in the data set on EV-D68 (setting [1]), 100 nM; in the data set with EV-D68, EV-A71, and CVB3 (read-out: EC50 (text summary, virus not singled out)), 100 nM; in the data set on EV-A71 (setting [3]), 100 nM. The CC50 in the data set “in vitro” (setting [2]) worked out at 20700 nM; in “in vitro” (CC50, in RD cells (Anti-EV-D68)) it was 20700 nM.

On to `CC(CN)NC(=O)c1cc(C(C)C)nc2c1cnn2C(C)C` (stereo not drawn) [Compound 10f, N-(1-aminopropan-2-yl)-1,6-bis(propan-2-yl)-1H-pyrazolo[3,4-b]pyridine-4-carboxamide], for which the EC50 stood at 600 nM in the data set with CVB3 Nancy virus, 400 nM in the data set with EV-D68 (setting [1]) and 500 nM with EV-A71 (setting [3]). In the data set “in vitro” (setting [2]), this compound returned a CC50 of 118000 nM.

For `CC(C)n1ncc2c(C(=O)NCCN)cc(C(C)(C)C)nc21` [Compound 11b, N-(2-aminoethyl)-6-tert-butyl-1-(propan-2-yl)-1H-pyrazolo[3,4-b]pyridine-4-carboxamide], the EC50 in the data set with CVB3 Nancy virus was determined as 100 nM; with EV-D68 (setting [1]), 100 nM; in the data set with EV-A71 (setting [3]), 200 nM. For the same compound, in the data set “in vitro” (setting [2]), the CC50 was determined as 24600 nM.

Regarding `CC(C)n1ncc2c(C(=O)NCCN3CCCC3)cc(C3CC3)nc21` [Compound 7b, 6-cyclopropyl-1-(propan-2-yl)-N-[2-(pyrrolidin-1-yl)ethyl]-1H-pyrazolo[3,4-b]pyridine-4-carboxamide], the EC50 in the data set on CVB3 Nancy virus was 200 nM; in the data set on EV-D68 (setting [1]), 100 nM; with EV-A71 (setting [3]) it was 200 nM. The same compound registered a CC50 in the data set “in vitro” (setting [2]) of 46500 nM.

As to `CCN(CC)CCCNC(=O)c1cc(C2CC2)nc2c1cnn2C(C)C` [Compound 7k, 6-cyclopropyl-N-[3-(diethylamino)propyl]-1-(propan-2-yl)-1H-pyrazolo[3,4-b]pyridine-4-carboxamide], the results for the EC50 in the data set with CVB3 Nancy virus, in the data set on EV-D68 (setting [1]) and in the data set with EV-A71 (setting [3]) were 1700 nM, 1900 nM and 6100 nM, respectively.

Turning to `CCCn1ncc2c(C(=O)NCCN(C)C)cc(C3CC3)nc21` [Compound 20, 6-cyclopropyl-N-[2-(dimethylamino)ethyl]-1-propyl-1H-pyrazolo[3,4-b]pyridine-4-carboxamide], the EC50 with CVB3 Nancy virus is 2000 nM; in the data set on EV-D68 (setting [1]), 1200 nM; with EV-A71 (setting [3]), 2000 nM. Also, in the data set on EV-D68, EV-A71, and CVB3, the “EC50 values in words” value is reported as “low single-digit or submicromolar”. In “in vitro” (setting [2]), this compound gave a CC50 of 57700 nM.

As for `CC(C)c1cc(C(=O)NCCN)c2cnn(C(C)C)c2n1` [Compound 10e, N-(2-aminoethyl)-1,6-bis(propan-2-yl)-1H-pyrazolo[3,4-b]pyridine-4-carboxamide], the EC50 in the data set with CVB3 Nancy virus was found to be 900 nM; in the data set with EV-D68 (setting [1]), 600 nM; in the data set with EV-A71 (setting [3]), 600 nM. In “in vitro” (setting [2]), this compound had a CC50 of 170000 nM.

Turning to `CC(C)n1ncc2c(C(=O)NC3CNC3)cc(C3CC3)nc21` [Compound 7e, N-(azetidin-3-yl)-6-cyclopropyl-1-(propan-2-yl)-1H-pyrazolo[3,4-b]pyridine-4-carboxamide], in the data set on EV-D68 (setting [1]), the EC50 is 1400 nM.

For `COCCNC(=O)c1cc(C2CC2)nc2c1cnn2C(C)C` [Compound 7a, 6-cyclopropyl-N-(2-methoxyethyl)-1-(propan-2-yl)-1H-pyrazolo[3,4-b]pyridine-4-carboxamide], the CC50 in “in vitro” (setting [2]) is 178000 nM.

As to `CC(C)n1ncc2c(C(=O)NCCN)cc(C3CC3)nc21` [Compound 7i, N-(2-aminoethyl)-6-cyclopropyl-1-(propan-2-yl)-1H-pyrazolo[3,4-b]pyridine-4-carboxamide], the figures for the EC50 in the data set on CVB3 Nancy virus, in the data set with EV-D68 (setting [1]) and in the data set with EV-A71 (setting [3]) were 900 nM, 400 nM and 400 nM, respectively.

As to `CNCCNC(=O)c1cc(C2CC2)nc2c1c(C)nn2C(C)(C)C` [Compound 18b, 1-tert-butyl-6-cyclopropyl-3-methyl-N-[2-(methylamino)ethyl]-1H-pyrazolo[3,4-b]pyridine-4-carboxamide], the EC50 came out at 2900 nM with CVB3 Nancy virus, 1100 nM with EV-D68 (setting [1]) and 8400 nM with EV-A71 (setting [3]).

On to `Cc1cc(C(=O)NCCN(C)C)c2c(C)nn(C(C)(C)C)c2n1` [Compound 19, 1-tert-butyl-N-[2-(dimethylamino)ethyl]-3,6-dimethyl-1H-pyrazolo[3,4-b]pyridine-4-carboxamide], for which the EC50 is 2100 nM in the data set with CVB3 Nancy virus; 1000 nM in the data set on EV-D68 (setting [1]); 700 nM with EV-D68 (read-out: EC50, EV-D68 US/IL/14-18952 (Clade B2)); 400 nM with EV-D68 (read-out: EC50, EV-D68 US/IL/14-18956 (Clade B2)); 1000 nM in the data set with EV-D68 (read-out: EC50, EV-D68 US/KY/14-18953 (Clade D)); 400 nM in the data set with EV-D68 (read-out: EC50, EV-D68 US/MO/14-18947 (Clade B1)). Moreover, the EC50 was 700 nM in the data set on EV-D68 (read-out: EC50, EV-D68 US/MO/14-18949 (Clade B1)); 400 to 7400 nM with EV-D68, EV-A71, and CVB3 (RD, read-out: EC50 values range against all EV-D68 and EV-A71 strains tested); 7400 nM in the data set on EV-A71 (setting [3]); 2000 nM with EV-A71 (read-out: EC50, EV-A71 A71 MP4); 7400 nM in the data set on EV-A71 (read-out: EC50, EV-A71 Tainan/4643/1998); 1300 nM with EV-A71 (read-out: EC50, EV-A71 USA/CT/2016-19519). Also, the “selectivity index across EV-D68 and EV-A71 strains tested” value with EV-D68, EV-A71, and CVB3 was above 100. For the same compound, the CC50 in the data set “in vitro” (CC50 (EV-A71 A71 MP4 row group)), in the data set “in vitro” (CC50 (EV-A71 Tainan/4643/1998)) and in the data set “in vitro” (CC50 (EV-A71 USA/CT/2016-19519)) was 236000 nM each time.
